These results are taken from publication PMC9456261 (International Journal of Molecular Sciences, 2022).

The term melting point denotes the temperature, or range, at which the solid turns liquid. One may read the inhibition as the percentage by which the read-out fell short of the control.

One data set can be described thus: in vitro. To be noted: African green monkey.
The next data set has as its system Vero E6 cells. Briefly: Cytotoxicity, MTT assay. (Tetrazolium assays rely on reduction of a dye to a coloured formazan, in cell work by metabolically active cells.)
A further data set has as its system SARS-CoV-2. Briefly: Time-of-drug-addition assay (qRT-PCR of viral RNA in supernatant). The settings on record: 25 µM, Vero E6, MOI 0.01, qRT-PCR 18 h post-infection. The data set is classed as cell-based. As to the method: To explore which steps of the SARS-CoV-2 replication cycle were interrupted by the test compounds, we performed a time-of-drug-addition assay for compounds 874 and 876, which were selected as representatives with different substituents at positions N1 and N3. Cells were treated with 25 µm of these compounds at various stages of infection (entry, full time and post-entry) which was followed by qRT-PCR assays.
The assays were performed as described previously. Briefly, Vero E6 cells were seeded into 96-well plates and treated with 874 or 876 (25 µM) at different stages of virus infection (full-time, entry and post-entry). The cells were infected with SARS-CoV-2 (MOI = 0.01) and then incubated for 1 h. The viral inoculum was then removed, and the cells were washed twice with PBS. At 18 h post-infection, the cell culture supernatant of each time point experiment was collected for viral yield measurements using qRT–PCR, as described in [31, 33].
Figure 3 Time-of-drug-addition Assay. Vero E6 cells were treated with the compounds at different time points of the viral replication cycle as described in the Materials and Methods chapter. For all experimental groups, cells were infected with SARS-CoV-2 at an MOI of 0.01. Viral RNA copies in the supernatant were quantified by qRT-PCR at 18 h post-infection. All results are shown as mean ± SEM (n = 3). One-way ANOVA with Tukey’s post hoc test: ** p < 0.01, *** p < 0.001 and **** p < 0.0001.
(Quantitative PCR measures a nucleic acid by following its amplification.)

The target of data set [1] is SARS-CoV-2 RdRp (NSP12, NSP7 and NSP8) (Severe acute respiratory syndrome coronavirus 2, UniProt P0DTD1). The data set can be described thus: Inhibition of SARS-CoV-2 RNA-dependent RNA polymerase activity (Profoldin kit). The data set is classed as biochemical. The procedure:
SARS-CoV-2 RdRp activity was inhibited by 876 at 100 µM and 50 µM, by 100% and 60%, respectively (Figure 6).
The activity of SARS-CoV-2 RdRp was assessed using the SARS-CoV-2 RNA-dependent RNA polymerase kit plus (Profoldin #S2RPA100KE), according to the manufacture instructions. In brief, reactions were carried out at 35 °C for 2 h in the presence or absence (control) of the test compound. Then, fluorescent dye was added, and fluorescence was determined using a Qubit fluorimeter (Thermo Fisher, MA, USA). The inhibition of RdRp activity was calculated from the values obtained for control samples.
Figure 6 Uracil Derivative 876 Inhibit the Transcriptional Activity of SARS-CoV-2 RNA-dependent RNA polymerase. Transcriptional inhibition plot of the SARS-CoV-2 replication complex treated with 876 or PBS (control) (n = 3). Results are representative mean ± SEM. One-way ANOVA with Tukey’s post hoc test: *** p < 0.001 and **** p < 0.0001.

As for `O=C(O)c1ccc(OCCCCCn2c(=O)ccn(CCCCCOc3ccc(F)cc3)c2=O)cc1` [Compound 870, 4-[5-[3-[5-(4-Fluorophenoxy)pentyl]-2,6-dioxo-3,6-dihydropyrimidin-1(^2H)-yl]pentyloxy]benzoic acid], the melting point lay within 133 to 135 °C. The CC50 in “in vitro” is over 50 µM.

In turn, `O=C(O)c1ccc(Cn2c(=O)ccn(CCCCCOc3ccc(Br)cc3)c2=O)cc1` [Compound 875] gave a CC50 in “in vitro” of over 50 µM.

`O=c1ccn(Cc2c3ccccc3cc3ccccc23)c(=O)n1CCCCCCOc1ccc(Br)cc1` [Compound 611, 1-(Anthracen-9-ylmethyl)-3-[6-(4-bromophenoxy)hexyl]uracil] registered a CC50 in the data set “in vitro” of over 50 µM.

In the data set on Vero E6 cells (72 h), “4-[5-[3-[5-(2-Bromophenoxy)pentyl]-2,6-dioxo-5-methyl-3,6-dihydropyrimidin-1(^2H)-yl]pentyloxy]benzoic acid [Compound 872]” registered a CC50 of over 50 µM.

For `Cc1cc(C)cc(OCCCCCn2ccc(=O)n(CCCCCOc3ccc(C(=O)O)cc3)c2=O)c1` [Compound 874, 4-[5-[3-[5-(3,5-Dimethylphenoxy)pentyl]-2,6-dioxo-3,6-dihydropyrimidin-1(^2H)-yl]pentyloxy]benzoic acid], in the data set on SARS-CoV-2, the “Production of viral RNA, compound added at entry step” value is “did not inhibit the production of viral RNA” and the “Virus replication (viral load in supernatant), compound added full time” value is “inhibited virus replication”. For the same compound, the “Effect on cell proliferation / cell death” value with Vero E6 cells is “reduced cell proliferation without significant cell death”. Besides, in “in vitro”, the CC50 is over 25 µM.

The compound `O=C(O)c1ccc(OCCCCn2c(=O)ccn(Cc3ccc(Br)c4ccccc34)c2=O)cc1` [Compound 1006, 4-[4-[3-(4-Bromonaphthyl-1-methyl)-2,6-dioxo-3,6-dihydropyrimidin-1(2H)-yl]butoxy]benzoic acid] showed a melting point of 195.5 to 197.5 °C. Moreover, in “in vitro”, the CC50 was over 50 µM.

With `O=C(O)c1ccc(OCCCCn2c(=O)ccn(Cc3ccc4ccccc4c3)c2=O)cc1` [Compound 1005, 4-[4-[2,6-Dioxo-3-(naphthyl-2-methyl)-3,6-dihydropyrimidin-1(^2H)-yl]butoxy]benzoic acid], the melting point lay within 143.5 to 145 °C. Moreover, in “in vitro”, the CC50 is over 50 µM.

Turning to `O=C(O)c1ccc(OCCCn2c(=O)ccn(CCCCCCCCCCCCOc3ccc(Br)cc3)c2=O)cc1` [Compound 1007, 4-[3-[3-[12-(4-Bromophenoxy)dodecyl]-2,6-dioxo-3,6-dihydropyrimidin-1(^2H)-yl]propoxy]benzoic acid], in the data set with Vero E6 cells, the “Effect on cell proliferation / cell death” value is recorded as “reduced cell proliferation without significant cell death”. The compound also gave a CC50 in “in vitro” of over 25 µM.

Consider `O=C(O)c1ccc(OCCCCn2c(=O)ccn(Cc3cccc4ccccc34)c2=O)cc1` [Compound 601, 4-[4-[2,6-Dioxo-3-(naphthyl-1-methyl)-3,6-dihydropyrimidin-1(^2H)-yl]butoxy]benzoic acid], for which the melting point lay in the range of 183 to 184.5 °C. Moreover, the CC50 in “in vitro” was over 50 µM.

`O=C(O)c1ccc(OCCCCCn2c(=O)ccn(Cc3c4ccccc4cc4ccccc34)c2=O)cc1` [Compound 876] yielded a melting point of 173 to 176 °C. Further, in the data set on SARS-CoV-2, the “Production of viral RNA, compound added at entry step” value was “did not inhibit the production of viral RNA” and the “Virus replication (viral load in supernatant), compound added full time” value was “inhibited virus replication”. The “Viral load, compound added post-entry” value with SARS-CoV-2 (post-entry) is given as “reduced the viral load”. In data set [1] (50 µM), this compound came in with an inhibition at 50 µM of 60%. In addition, the inhibition at 100 µM in data set [1] (100 µM) was found to be 100%. Further, the CC50 in “in vitro” is over 50 µM.

On to `O=C(O)c1ccc(OCCCCCn2c(=O)ccn(CCCCCOc3ccccc3Br)c2=O)cc1` [Compound 871, 4-[5-[3-[5-(2-Bromophenoxy)pentyl]-2,6-dioxo-3,6-dihydropyrimidin-1(^2H)-yl]pentyloxy]benzoic acid], for which the “Effect on cell proliferation / cell death” value in the data set with Vero E6 cells is reported as “reduced cell proliferation without significant cell death”. Further, in “in vitro”, the CC50 is over 25 µM.

Take `O=C(O)c1ccc(OCCCCn2c(=O)ccn(CCCOc3ccc(Br)cc3)c2=O)cc1` [Compound 873, 4-[4-[3-[3-(4-Bromophenoxy)propyl]-2,6-dioxo-3,6-dihydropyrimidin-1(^2H)-yl]butoxy]benzoic acid]: the melting point was in the range of 122 to 124 °C. This compound also displayed a CC50 in “in vitro” of over 50 µM.
